Several values for one entry are separate records, joined by “and”; a condition that tells them apart may be missing. Equal entries are not always repeated.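 Assay format: 96-well plates, 48-hour exposure. The concentration for 50% growth inhibition is given as GI50. TGI denotes the concentration required for complete inhibition of growth.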
Tests used:
Test in all cases: NCI-60 cell line screen, 48 h
[1] = test system: NCI-H226 lung
[2] = test system: RPMI-8226 leukemia
[3] = test system: DMS 273 small cell lung
[4] = test system: A498 renal
[5] = test system: MDA-MB-435
[6] = test system: COLO 205 colon
[7] = test system: HOP-62 NSCLC
[8] = test system: SK-OV-3 ovarian
[9] = test system: LXFL 529 NSCLC
[10] = test system: LOX IMVI melanoma

Structure (SMILES): COC(=O)[C@@]12OC[C@]34[C@H]([C@@H](O)[C@@H]1O)[C@@]1(C)CC(=O)C(O)=C(C)[C@@H]1C[C@H]3OC(=O)[C@H](OC(=O)/C=C(\C)C(C)C)[C@@H]24
- TGI [1]: 0.00771 µM and 0.0236 µM
- TGI [2]: 0.0129 µM and < 0.0409 µM and 0.0545 µM
- TGI [3]: 0.000177 µM
- GI50 [4]: 0.00487 µM
- TGI [4]: 0.0109 µM and 0.022 µM
- TGI [5]: 0.0415 µM and 0.0128 µM
- TGI [6]: 0.0167 µM and 0.0586 µM
- TGI [7]: 0.0342 µM and < 0.011 µM and 0.0216 µM
- TGI [8]: 0.0254 µM and 0.175 µM

Structure (SMILES): COC(=O)C1=NC(=S)NC(c2ccccc2)C1c1nc2ccccc2o1 (stereo not given)
- TGI [1]: > 50 µM
- TGI [2]: > 50 µM
- TGI [4]: > 50 µM
- TGI [6]: > 50 µM
- TGI [9]: > 50 µM
- TGI [7]: > 50 µM
- TGI [10]: > 50 µM
- TGI [8]: > 50 µM

Structure (SMILES): O=C(/C=C/c1ccc(O)c(O)c1)N1CCN(c2ccc(Cl)cc2)CC1
- GI50 [1]: 4.63 µM
- TGI [1]: 26.4 µM
- GI50 [2]: 2.87 µM
- TGI [2]: 29.7 µM
- GI50 [4]: 2.5 µM
- TGI [4]: 16.4 µM
- GI50 [5]: 5.93 µM
- TGI [5]: 62.2 µM
- GI50 [6]: 5.11 µM
- TGI [6]: 19.7 µM
- GI50 [7]: 7.77 µM
- TGI [7]: 35.1 µM
- GI50 [10]: 7.35 µM
- TGI [10]: 21.6 µM
- GI50 [8]: 10.1 µM
- TGI [8]: 67.7 µM

Structure (SMILES): Cc1cc(N2CCC(N3CCCC3)CC2)nc(/N=C(\N)Nc2ccc(Cl)c(Cl)c2)n1
- GI50 [1]: 1.79 µM
- TGI [1]: 3.69 µM
- GI50 [2]: 0.264 µM
- TGI [2]: 0.926 µM
- GI50 [4]: 1.94 µM
- TGI [4]: 3.94 µM
- GI50 [5]: 1.74 µM
- TGI [5]: 3.3 µM
- GI50 [6]: 1.7 µM
- TGI [6]: 3.26 µM
- GI50 [7]: 1.81 µM
- TGI [7]: 3.8 µM
- GI50 [10]: 1.61 µM
- TGI [10]: 3.35 µM
- GI50 [8]: 1.88 µM
- TGI [8]: 3.49 µM

Structure (SMILES): Cc1ccc(-c2nc(NCCOCCOCCN)nc(N3CCN(c4ccccn4)CC3)n2)cc1
- GI50 [1]: 17.4 µM
- TGI [1]: 34.3 µM
- GI50 [2]: 10.6 µM
- TGI [2]: 32.8 µM
- GI50 [4]: 5.94 µM
- TGI [4]: 21.7 µM
- GI50 [5]: 10.5 µM
- TGI [5]: 30.2 µM
- GI50 [6]: 6.89 µM
- TGI [6]: 14.2 µM
- GI50 [7]: 16.7 µM
- TGI [7]: 31.4 µM
- GI50 [10]: 8.82 µM
- TGI [10]: 25.9 µM
- GI50 [8]: 19.1 µM
- TGI [8]: 35.6 µM

Structure (SMILES): C=CCC(N[C@@H](CO)c1ccccc1)c1ccc2ccccc2n1 (stereo not given in full)
- GI50 [1]: > 100 µM
- TGI [1]: > 100 µM
- GI50 [2]: 30.2 µM
- TGI [2]: > 100 µM
- GI50 [4]: 93.2 µM
- TGI [4]: > 100 µM
- GI50 [5]: > 100 µM
- TGI [5]: > 100 µM
- GI50 [6]: > 100 µM
- TGI [6]: > 100 µM
- GI50 [7]: > 100 µM
- TGI [7]: > 100 µM
- GI50 [10]: > 100 µM
- TGI [10]: > 100 µM
- GI50 [8]: > 100 µM
- TGI [8]: > 100 µM

Structure (SMILES): CNC(=O)CCN1CCN(CC/C=C2\c3ccccc3Sc3ccc(Cl)cc32)CC1
- GI50 [1]: 19 µM
- TGI [1]: 37.9 µM
- GI50 [2]: 3.65 µM
- TGI [2]: 18.2 µM
- GI50 [4]: 6.89 µM
- TGI [4]: 19.9 µM
- GI50 [5]: 1.96 µM
- TGI [5]: 4.91 µM
- GI50 [6]: 2.48 µM
- TGI [6]: 6 µM
- GI50 [7]: 14.6 µM
- TGI [7]: 32.7 µM
- GI50 [10]: 5.15 µM
- TGI [10]: 18.9 µM
- GI50 [8]: 16.4 µM
- TGI [8]: 31.2 µM

Structure (SMILES): CC1(C)CC(O)CC(C)(C)N1O
- GI50 [1]: > 100 µM
- TGI [1]: > 100 µM
- TGI [2]: > 100 µM
- TGI [4]: > 100 µM
- TGI [5]: > 100 µM
- TGI [6]: > 100 µM
- TGI [7]: > 100 µM
- GI50 [10]: > 100 µM
- TGI [10]: > 100 µM
- TGI [8]: > 100 µM

Structure (SMILES): COc1ccc(/C=C/C(=N\NC(=O)c2ccccc2)c2sc(Nc3ccc([N+](=O)[O-])cc3)nc2C)cc1OC
- TGI [1]: 44.7 µM
- TGI [3]: 54.6 µM
- TGI [6]: > 100 µM
- TGI [9]: 24.3 µM
- TGI [7]: 49.9 µM
- TGI [10]: 15.9 µM
- TGI [8]: > 100 µM

Structure (SMILES): O=c1c(I)c[nH]cc1I
- GI50 [1]: > 100 µM
- TGI [1]: > 100 µM
- GI50 [2]: > 100 µM
- TGI [2]: > 100 µM
- GI50 [4]: > 100 µM
- TGI [4]: > 100 µM
- GI50 [5]: > 100 µM
- TGI [5]: > 100 µM
- GI50 [6]: > 100 µM
- TGI [6]: > 100 µM
- GI50 [7]: > 100 µM
- TGI [7]: > 100 µM
- GI50 [10]: > 100 µM
- TGI [10]: > 100 µM
- GI50 [8]: > 100 µM
- TGI [8]: > 100 µM

Structure (SMILES): COC(=O)Cc1cc(=O)n2c3ccccc3n(C)c2c1C#N
- TGI [1]: > 100 µM
- TGI [2]: > 100 µM
- TGI [3]: > 100 µM
- TGI [4]: > 100 µM
- TGI [6]: > 100 µM
- TGI [7]: > 100 µM
- TGI [10]: > 100 µM
- TGI [8]: > 100 µM

Structure (SMILES): C=C1C(=O)OC2CC(C)C(/C=C/C(C)=O)=CCC12 (stereo not given)
- TGI [1]: > 100 µM
- TGI [2]: > 100 µM
- TGI [4]: > 100 µM
- TGI [5]: > 100 µM
- TGI [6]: > 100 µM
- TGI [7]: > 100 µM
- TGI [10]: > 100 µM
- TGI [8]: > 100 µM

Structure (SMILES): COc1cc(-c2nc(-c3ccccc3)c(-c3ccccc3)[nH]2)cc(OC)c1O
- GI50 [1]: 21.2 µM
- TGI [1]: 50 µM
- GI50 [2]: 24.1 µM
- TGI [2]: 83 µM
- GI50 [4]: 0.0762 µM
- TGI [4]: 24.7 µM
- GI50 [5]: 14.5 µM
- TGI [5]: 28.4 µM
- GI50 [6]: 19.6 µM
- TGI [6]: 36.4 µM
- GI50 [7]: 21.9 µM
- TGI [7]: 47.8 µM
- GI50 [10]: 17.2 µM
- TGI [10]: 32.6 µM
- GI50 [8]: 23.1 µM
- TGI [8]: 47.8 µM

Structure (SMILES): O=c1[nH]c2cc(Cl)ccc2nc1/C(=N\Nc1ccccc1)C(O)c1ccc2c(c1)OCO2 (stereo not given)
- TGI [1]: > 100 µM
- TGI [2]: > 100 µM
- TGI [4]: > 100 µM
- TGI [5]: > 100 µM
- TGI [6]: > 100 µM
- TGI [7]: > 100 µM
- TGI [10]: > 100 µM
- TGI [8]: > 100 µM
